Measurements published in patent US20230390274A1 (EPIRIUM BIO INC., priority 2020, published 2023).

target: 15-PGDH/HPGD (Homo sapiens (Human), UniProt P15428); experiment: hPGDH inhibitor screening biochemical assay; details: 10 nM 15-PGDH/HPGD, 15 μM PGE2, 0.25 mM NAD; read-out: hPGDH: Average IC50
Summary of the method: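 10 nM recombinant 15-PGDH was preincubated with compound (10-point) for 10 min at 37° C. in 50 mM Tris-HCl pH 7.5, 0.01% Tween 20. Then 15 μM PGE2 and 0.25 mM NAD+ were added for 10 min at rt. NADH fluorescence (ex/em 340/485 nm) gave % inhibition versus 1% DMSO and a four-parameter IC50.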

Sequence of 15-PGDH/HPGD (P15428 whole entry): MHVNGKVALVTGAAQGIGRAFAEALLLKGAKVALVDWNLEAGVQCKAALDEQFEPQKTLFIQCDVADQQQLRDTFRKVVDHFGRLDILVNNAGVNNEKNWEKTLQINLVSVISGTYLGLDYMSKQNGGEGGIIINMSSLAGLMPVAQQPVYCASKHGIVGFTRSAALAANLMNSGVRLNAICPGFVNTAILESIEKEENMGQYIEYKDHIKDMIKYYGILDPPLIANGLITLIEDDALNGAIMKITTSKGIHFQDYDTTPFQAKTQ

| SMILES | IC50 |
| --- | --- |
| COc1cccc(-c2cn(C)c3cc(C(=O)N4CCC(F)CC4)cnc23)c1 [A-307, (4-fluoropiperidin-1-yl)(3-(3-methoxyphenyl)-1-methyl-1H-pyrrolo[3,2-b]pyridin-6-yl)methanone] | 100 to 1000 nM |
| COc1ccccc1-c1cn(C)c2cc(C(=O)N3CCC(F)CC3)cnc12 [A-308, (4-fluoropiperidin-1-yl)(3-(2-methoxyphenyl)-1-methyl-1H-pyrrolo[3,2-b]pyridin-6-yl)methanone] | ≥ 1000 nM |
| COc1ccc(-n2c(C)nc3cc(C(=O)N4CCCCC4)ccc32)cc1 [A-310] | < 100 nM |
| CCC(CC)n1cnc2cc(C(=O)N3CCCCC3)ccc21 [A-311] | < 100 nM |
| COc1ccc(-n2nnc3cc(C(=O)N4CCC(F)CC4)ccc32)cc1 [A-312, (4-fluoropiperidin-1-yl)(1-(4-methoxyphenyl)-1H-benzo[d][1,2,3]triazol-5-yl)methanone] | < 100 nM |
| COc1ccc(-n2nnc3cc(C(=O)N4CCCCC4)ccc32)cc1 [A-313, (1-(4-methoxyphenyl)-1H-benzo[d][1,2,3]triazol-5-yl)(piperidin-1-yl)methanone] | < 100 nM |
| O=C(c1cnc2c(ccn2-c2ccc3c(c2)OC(F)(F)O3)c1)N1CCCCC1 [A-317] | < 100 nM |
| O=C(c1cnc2c(ccn2C2CCC(F)(F)CC2)c1)N1CCCCC1 [A-320] | ≥ 1000 nM |
| COc1ccc(-n2ccc3c(C)c(C(=O)N4CCCCC4)cnc32)cc1 [A-321] | < 100 nM |
| COc1ccc(-n2ccc3c(C#N)c(C(=O)N4CCCCC4)cnc32)cc1 [A-323, 1-(4-methoxyphenyl)-5-(piperidine-1-carbonyl)-1H-pyrrolo[2,3-b]pyridine-4-carbonitrile] | < 100 nM |
| COc1ccc(-n2ccc3c(N)c(C(=O)N4CCCCC4)cnc32)cc1 [A-324, (4-amino-1-(4-methoxyphenyl)-1H-pyrrolo[2,3-b]pyridin-5-yl)(piperidin-1-yl)methanone] | < 100 nM |
| O=C(c1ccc2c(cnn2-c2cncc(Cl)c2)c1)N1CCCCC1 [A-325] | < 100 nM |
| COc1ccc(-n2c(CCC(C)(C)O)cc3cc(C(=O)N4CCCCC4)cnc32)cc1 [A-326, (2-(3-hydroxy-3-methylbutyl)-1-(4-methoxyphenyl)-1H-pyrrolo[2,3-b]pyridin-5-yl)(piperidin-1-yl)methanone] | < 100 nM |
| CN(C)c1ccc(-n2ccc3cc(C(=O)N4CCC(F)CC4)cnc32)cc1 [A-327] | < 100 nM |
| O=C(c1cnc2c(ccn2-c2cncc(-c3n[nH]c(C4CC4)n3)c2)c1)N1CCC(F)(F)CC1 [A-332, (1-(5-(5-cyclopropyl-1H-1,2,4-triazol-3-yl)pyridin-3-yl)-1H-pyrrolo[2,3-b]pyridin-5-yl)(4,4-difluoropiperidin-1-yl)methanone] | < 100 nM |
| O=C(c1cnc2c(ccn2-c2ccc(-c3n[nH]c(C4CC4)n3)nc2)c1)N1CCC(F)(F)CC1 [A-333, (1-(6-(5-cyclopropyl-1H-1,2,4-triazol-3-yl)pyridin-3-yl)-1H-pyrrolo[2,3-b]pyridin-5-yl)(4,4-difluoropiperidin-1-yl)methanone] | < 100 nM |
| O=C(c1cnc2c(ccn2-c2ccc(-c3nnc(C(F)(F)F)[nH]3)nc2)c1)N1CCC(F)(F)CC1 [A-334, (4,4-Difluoropiperidin-1-yl)(1-(6-(5-(trifluoromethyl)-4H-1,2,4-triazol-3-yl)pyridin-3-yl)-1H-pyrrolo[2,3-b]pyridin-5-yl)methanone] | < 100 nM |
| CC(C)(C)c1ccc(NC(=O)c2cncc(-n3ccc4cc(C(=O)N5CCC(F)(F)CC5)cnc43)c2)cn1 [A-335, N-(6-(tert-butyl)pyridin-3-yl)-5-(5-(4,4-difluoropiperidine-1-carbonyl)-1H-pyrrolo[2,3-b]pyridin-1-yl)nicotinamide] | < 100 nM |
| CC(C)(O)CCc1cc2cc(C(=O)N3CCC(F)(F)CC3)cnc2n1-c1ccc(C(=O)O)cc1 [A-336, 4-(5-(4,4-difluoropiperidine-1-carbonyl)-2-(3-hydroxy-3-methylbutyl)-1H-pyrrolo[2,3-b]pyridin-1-yl)benzoic acid] | < 100 nM |
| Cc1nc(-c2ccc(-n3c(CCC(C)(C)O)cc4cc(C(=O)N5CCC(F)(F)CC5)cnc43)cc2)no1 [A-337, (4,4-difluoropiperidin-1-yl)(2-(3-hydroxy-3-methylbutyl)-1-(4-(5-methyl-1,2,4-oxadiazol-3-yl)phenyl)-1H-pyrrolo[2,3-b]pyridin-5-yl)methanone] | < 100 nM |
| C[C@H]1CCCN(C(=O)c2cnc3c(ccn3-c3ccc(C(=O)O)cc3)c2)C1 [A-339, (S)-4-(5-(3-methylpiperidine-1-carbonyl)-1H-pyrrolo[2,3-b]pyridin-1-yl)benzoic acid] | < 100 nM |
| COCCc1nc2cc(C(=O)N3CCC(F)CC3)cnc2n1-c1ccc(OC)cc1 [A-342] | ≥ 1000 nM |
| NC(=O)c1cncc(-n2ccc3cc(C(=O)N4CCC(F)CC4)cnc32)c1 [A-346] | < 100 nM |
| NC(=O)c1ccc(-n2ccc3cc(C(=O)N4CCC(F)CC4)cnc32)cn1 [A-347] | < 100 nM |
| NC(=O)c1cncc(-n2ccc3cc(C(=O)N4CCCCC4)cnc32)c1 [A-348] | < 100 nM |
| CNC(=O)c1cncc(-n2ccc3cc(C(=O)N4CCCCC4)cnc32)c1 [A-349] | < 100 nM |
| CN(C)C(=O)c1cncc(-n2ccc3cc(C(=O)N4CCCCC4)cnc32)c1 [A-350] | < 100 nM |
| N#Cc1cncc(-n2ccc3cc(C(=O)N4CCCCC4)cnc32)c1 [A-351] | < 100 nM |

same assay, conditions: Table 1, PGDH inhibitors with a 6-5 ring core; read-out: hPGDH: IC50

| SMILES | IC50 |
| --- | --- |
| COc1ccc(-n2cnc3cc(C(=O)N4CCC(F)(F)CC4)cnc32)cc1 [drawing 78] | 57.4 nM |
| COc1ccc(-n2cnc3cc(C(=O)N4CCC(F)CC4)cnc32)cc1 [drawing 79] | 19.5 nM |
| COc1ccc(-n2cnc3cc(C(=O)N4CCCCC4)cnc32)cc1 [drawing 80] | 20.1 nM |
| O=C(c1cnc2c(ccn2-c2cnccn2)c1)N1CCCCC1 [drawing 81] | 0.6 nM |
| O=C(c1ccc2c(c1)ncn2-c1ccc(O)c(Cl)c1)N1CCCCC1 [drawing 82] | 2.5 nM |
| O=C(c1ccc2c(c1)ncn2-c1cccc(Cl)c1)N1CCC(F)(F)C1 [drawing 83] | 1260 nM |
| O=C(c1ccc2c(c1)ncn2-c1cccc(Cl)c1)N1CCC(O)C1 (centres unmarked) [drawing 84] | 2870 nM |
| NC(=O)CCc1nc2cc(C(=O)N3CCCCC3)ccc2n1-c1cccc(Cl)c1 [drawing 85] | 44.9 nM |
| O=C1CCN(C(=O)c2ccc3c(c2)ncn3-c2cccc(Cl)c2)C1 [drawing 88] | 4540 nM |
| Cc1nc2cc(C(=O)N3CCCCC3)ccc2n1-c1cccc(Cl)c1 [drawing 89] | 5.6 nM |
| O=C(c1ccc2c(c1)ncn2-c1cccc(Cl)c1)N1CCC(Cl)C1 (centres unmarked) [drawing 90] | 64.7 nM |
| O=C(c1ccn2c(-c3cccc(Cl)c3)cnc2c1)N1CCCCC1 [drawing 93] | 5.7 nM |
| O=C(c1ccc2c(c1)ncn2-c1cccc(Cl)c1)N1CCC(F)(F)CC1 [drawing 96] | 12.2 nM |
| O=C(c1ccc2c(c1)ncn2-c1cccc(Cl)c1)N1CC2CCC(C2)C1 [drawing 97] | 46.6 nM |
| O=C(c1ccc2c(c1)ncn2-c1cccc(Cl)c1)N1CCCCC1 [drawing 98] | 2.7 nM |
| O=C(c1ccc2c(c1)ncn2-c1cccc(Cl)c1)N1CC2(CCC2)C1 [drawing 99] | 43.9 nM |
| O=C(c1ccc2c(c1)ncn2-c1cccc(Cl)c1)N1CCCCCC1 [drawing 101] | 3.2 nM |
| O=C(c1ccc2c(c1)ncn2-c1cccc(Cl)c1)N1CC2CCCC2C1 (centres unmarked) [drawing 102] | 24.9 nM |
| O=C(c1ccc2c(c1)c(Cl)cn2-c1cccc(Cl)c1)N1CCCCC1 [drawing 104] | 10.6 nM |
| O=C(c1cnc2c(c1)ncn2-c1cccc(Cl)c1)N1CCCCC1 [drawing 106] | 12.8 nM |
| O=C(c1cnc2c(-c3cccc(Cl)c3)cnn2c1)N1CCCCC1 [drawing 107] | 49.3 nM |
| O=C(c1ccc2c(c1)nnn2-c1cccc(Cl)c1)N1CCCCC1 [drawing 108] | 3.1 nM |
| COc1ccc(-n2cnc3cc(C(=O)N4CCC(F)CC4)ccc32)cc1 [drawing 109] | 43.7 nM |
| COc1ccc(-n2cnc3cc(C(=O)N4CCCCC4)ccc32)cc1 [drawing 110] | 6.4 nM |
| O=C(c1ccc2c(cnn2-c2cccc(Cl)c2)c1)N1CCCCC1 [drawing 111] | 5.8 nM |
| O=C(c1ccc2c(ccn2-c2cccc(Cl)c2)c1)N1CCCCC1 [drawing 112] | 0.5 nM |

same assay, conditions: Table 2, PGDH inhibitors with a phenyl core; read-out: hPGDH: IC50

| SMILES | IC50 |
| --- | --- |
| COc1cc(C(=O)N2CCCCC2)ccc1COc1ccccc1Cl [drawing 115] | 8.5 nM |
| COc1ccccc1C(=O)N(C)c1ccc(C(=O)N2CCCCC2)cc1 [drawing 116] | 2280 nM |
| O=C(c1ccc(COc2ccccc2Cl)cc1)N1CCCCC1 [drawing 117] | 18.6 nM |
| COc1ccccc1C(=O)Nc1ccc(C(=O)N2CCCCC2)cc1 [drawing 118] | 27.1 nM |
| O=C(c1ccc(COc2ccccc2Br)cc1)N1CCCCC1 [drawing 120] | 3.1 nM |
